Data from publication PMC12834051, “Improved synthesis and physicochemical characterization of the selective serotonin 2A receptor agonist 25CN-NBOH” (Beilstein Journal of Organic Chemistry, 2026).
Values after ≈ are worked out from the molar mass of the structure shown. Values joined by “and” are separate entries in the source; they are usually repeats but may differ in a detail not shown here. Equal values may be shown once. “Also recorded” adds a separate entry of the source. Where a name gives a salt, the structure may show the parent alone. Read-outs that look alike come from different tables or passages of the source.

How the values were obtained:
[1] = Thermodynamic solubility in ultrapure water; assay type: physicochemical
Experimental: The solubility of 1·HCl in water was determined at 25 ± 0.5 °C by adding 30 mg to ultrapure water (3 mL) in screw-capped glass vials, giving a suspension where a solid precipitate could be observed at all timepoints. The samples were ultrasonicated for 3 min before being rotated in a temperature-controlled Incubator Hood TH 30 (Edmund Bühler, Bodelshausen, Germany). Sample aliquots of 600 µL were withdrawn after 30, 48, and 74 h and transferred to Eppendorf tubes. The samples were centrifuged at 19,000g for 15 min using a MiniSpin Plus (Eppendorf, Hamburg, Germany) and the supernatant filtered through a 0.45 µm PVDF filter (Ø = 4 mm, Phenomenex) with the first 400 µL being discarded. Samples were diluted with ultrapure water before measurement by a UV spectrophotometry at 241 nm using 10 mm micro quartz cuvettes (Hellma GmbH & Co. KG, Müllheim, Germany) and a Cary 60 UV–vis spectrophotometer (Agilent Technologies). Cary WinUV Simple Reads Application (Version 5.0.0, Agilent Technologies) was used for instrument control and data collection. The experiment was performed in triplicate.

[2] = Stability in solution (HPLC peak areas); assay type: physicochemical
Experimental: The stability of 1 was determined in 67 mM sodium phosphate buffer (pH 7.40, I = 0.18 M) and water at 25 ± 0.5 °C. The solutions comprising 0.2 mg/mL of 1·HCl were kept in a temperature-controlled incubator, and samples were measured by HPLC immediately after sample preparation as well as after one and four weeks for the experiments in phosphate buffer and after four weeks for experiments in ultrapure water. The stability of 1 was assessed based on peak areas. The experiment was performed in triplicate.
(§1) Samples from distribution coefficient and stability experiments were analyzed using an Agilent 1260 Infinity system (Agilent Technologies, Santa Clara, CA, USA) equipped with a column oven (Mikrolab Aarhus, Højbjerg, Denmark) and an Agilent 1100 series system (Agilent Technologies), respectively. Reversed-phase chromatography was performed using a Gemini C18 column (150 × 4.60 mm, 5 µm) with a Gemini C18 precolumn (4 × 3.00 mm, Phenomenex, Torrance, CA, USA). Detection was performed at 241 nm, the column temperature was 30 °C, the injection volume was 10 µL, and the flow rate was 1 mL/min. The mobile phase consisted of acetonitrile and 0.1% phosphoric acid in the ratios 35:65 and 25:75, v/v for the distribution coefficient and stability experiments, respectively. The ChemStation software (Version B.04.03, Agilent Technologies) was used for instrument control and data collection.

[3] = test system: MDCK; settings: MDCK assay, cited from earlier work
[4] = Apparent pKa by spectrophotometric titration (inForm, Sirius); assay type: physicochemical; settings: for pKa: concentration-based, 30.8 °C, I = 0.172 M
Experimental: The molar absorption coefficients and apparent pKa values of 1 were determined by spectrophotometry using an inForm instrument from Sirius Analytical (Forest Row, UK). Molar absorption coefficients (absorbance), as a function of the wavelength (185–750 nm) and pH in the interval 2.0–12.0, were determined at 30.8 °C. A stock solution (5.0 mM) of 1·HCl in N-methyl-2-pyrrolidone (NMP) was added to 36 mL of an ionic strength-adjusted buffer solution (I = 0.172 M) containing acetate, phosphate, and sodium chloride while stirring at 300 rpm. The concentration of 1 during measurements ranged from 13–27 µM (three experiments each with three titrations were performed). Potentiometric titrations from high to low pH and low to high pH were performed by addition of 0.50 M HCl and 0.50 M NaOH, respectively, while UV–vis spectra were recorded using the fiber optic probe (10 mm light path) of the inForm diode array spectrometer. The instrument control and data analysis were performed using the inForm software Version 1.1.3.6 (Sirius Analytical, Forest Row, UK).

[5] = in vivo, rodents; maximal brain exposure rapidly attained; cited from earlier work
[6] = buffer at pH 7.4; cited from earlier work
[7] = Octanol/buffer distribution coefficient (logD); assay type: physicochemical; settings: 25 °C
Experimental: The pH-dependent octanol/buffer distribution coefficients of 1 were determined at 25 ± 0.5 °C using the following buffers: 50 mM sodium citrate (pH 5.00, I = 0.15 M), 67 mM sodium phosphate (pH 7.40, I = 0.18 M), and 50 mM sodium carbonate (pH 9.50, I = 0.15 M). The ionic strength of the buffers was adjusted by adding a calculated amount of potassium chloride. The octanol phases were saturated with the appropriate buffer solution, and vice versa, before the start of the experiment. Solutions of 2, 0.5, and 0.1 mg/mL of the drug in the buffer solutions at pH 5.00, 7.40, and 9.50, respectively, were prepared. The organic phase was hereafter added to the buffer solution in a ratio of 1:9 at pH 5.00 and 7.40 and 1:19 at pH 9.50. The samples were rotated for 24 h in a temperature-controlled incubator at 25 °C. The concentration of 1 in the buffer solution before and after partitioning, ci and cw, respectively, was determined by HPLC, from which distribution coefficients, D, were calculated according to
where Vw and Vo are the volume of the buffer solution and organic phase, respectively. Each experiment was conducted in triplicate.
as §1

[8] = pH 7.4, calculated species distribution

COc1cc(CCNCc2ccccc2O)c(OC)cc1C#N [1·HCl, 25CN-NBOH·HCl]
pH of saturated solution in water ([1]; saturated solution of 1·HCl in ultrapure water): 6.24 ± 0.01 and 6.24
solubility thermodynamic ([1]; ultrapure water, 25 °C, pH 6.24, water, thermodynamic from solid): 8500 ± 300 µg/mL
kinetic solubility ([1]; water, preparing 5 mg/mL requires shaking for several minutes): low
stability in solution in phosphate buffer ([2]; phosphate buffer pH 7.4, 25 °C, 4 weeks): stable
stability in water ([2]; water, 25 °C, 4 weeks (1 month)): could not detect additional species; also recorded: stable

COc1cc(CCNCc2ccccc2O)c(OC)cc1C#N [Compound 1, 25CN-NBOH]
permeability apical–basal ([3]; apical–basal): 29 ×10⁻⁶ cm/s
permeability basal–apical ([3]; basal–apical): 20 ×10⁻⁶ cm/s
pKa ([4]; read-out: apparent pKa (phenol)): 10.7 ± 0.1
pKa ([4]; read-out: apparent pKa (protonated amine)): 8.4 ± 0.1
fraction present in the protonated form ([4]; pH 6.24, saturated solution of 1·HCl in ultrapure water): > 99%
fraction present as the neutral species [4, 8]: ~10%
fraction present in the protonated form [4, 8]: approximately 90%
fraction present as the neutral species ([4]; pH 9.5, calculated species distribution): 87%
BBB permeability [5]: excellent BBB permeability
solubility in buffer [6]: 400 µg/mL (≈ 1280 µM)
logD at 24 h ([7]; pH 5.00, octanol/50 mM sodium citrate): -0.76 ± 0.01
logD at 24 h ([7]; pH 7.4, pH 7.40, octanol/67 mM sodium phosphate): 1.59 ± 0.02
logD at 24 h ([7]; pH 9.5, pH 9.50, octanol/50 mM sodium carbonate): 2.58 ± 0.01
